Measured values as given in patent US20180296537A1, “METHODS AND COMPOSITIONS FOR DIAGNOSING, TREATING, AND MONITORING TREATMENT OF SHANK3 DEFICIENCY ASSOCIATED DISORDERS” (Novartis AG, priority 2015, published 2018).

Key:
[1] = system: Akt; test: Western blot of Akt phosphorylation in rat primary cortical neurons (Shank3 knock down vs control); assay type: cell-based; settings: for phosphorylation of Akt T308: 10 μM TG003, 60 minutes, DIV 16
Source text: E18 primary rat cortical neurons were dissected, cultured and infected 6 days after plating (DIV6) with indicated lentiviruses at MOI 10, as previously described (Proenca et al., 2013). Lentiviruses were produced by calcium phosphate transfection of HEK293T cells with packaging plasmids (Life Technologies) and transfer plasmid in 10 cm dishes. Cells were transferred to fresh medium 6 hrs. post-transfection. Four days post-transfection, the cell medium was collected and pooled from several dishes, cleared of cellular debris by 0.45 μm filtration, and concentrated 100× by centrifugation at 19,000 g for 90 min in a Beckman Ultracentrifuge using a SW28/SW32 rotor. Pellets were suspended in PBS/0.5% BSA and viral titer was determined by ELISA quantification of viral p24 antigen (Zeptometrix Corp, USA). For shRNA plasmid generation, oligonucleotides were annealed and ligated into lentiviral transfer plasmid pLKO.1-GFP vector at the AgeI/EcoRI sites. The target sequences of shRNAs that target rat and mouse Shank3 (5′-3′) are: […] […] (SEQ ID NO: 2), and […] (SEQ ID NO: 3). The latter was previously reported (Verpelli et al., 2011). A luciferase-targeting sequence was used as an shRNA control: […] (SEQ ID NO: 4).
For immunoprecipitation (IP) of HA-tagged Akt, neurons were lysed in IP buffer (20 mM Tris-HCl pH 7.4, 3 mM EDTA, 3 mM EGTA, 150 mM NaCl, 0.5% NP-40, and protease/phosphatase inhibitor cocktails (Roche)). Lysates were cleared by centrifugation at 13,000 rpm for 10 min and lysates normalized for protein abundance were immunoprecipitated with rabbit HA-tag antibody for 1 h at 4° C. Immuno-complexes were then captured by incubation for an additional 1 hr with Protein A agarose beads (Roche). Beads were washed three times with IP buffer and bound proteins were eluted with 2×SDS-PAGE sample buffer, then boiled for 5 min. For IP and analysis of ubiquitinated Myc-Clk2, neurons were lysed in Ubiquitin IP buffer (20 mM Tris-HCl pH 7.4, 3 mM EDTA, 3 mM EGTA, 150 mM NaCl, 1% Triton X-100, protease/phosphatase inhibitor cocktails (Roche), 5 mM N-ethylmaleimide, and 3 mM iodoacetamide) containing 1% SDS. Lysates were boiled for 20 min to denature proteins and then centrifuged for 10 min at 13,000 rpm. Lysates were subsequently diluted to 0.1% SDS with Ubiquitin IP buffer and immunoprecipitated with Myc antibody for 1 h. Complexes were then captured by addition of Protein G agarose (Roche) and additional 1 h incubation. Beads were washed 3× and eluted with 2×SDS-PAGE sample buffer, then boiled for 5 min. Samples prepared for SDS-PAGE were then resolved on 4-12% Novex gels (Life Technologies), transferred to PVDF membranes, blocked in 5% low-fat milk in TBS/0.1% Tween-20, and incubated overnight with primary antibodies. After washing and 1 h incubation with secondary antibodies, proteins were visualized by Chemiluminescent detection (Amersham-GE Healthcare Life Sciences).
To determine whether Shank3 deficiency impacts the PI3K-Akt-mTOR signaling pathway (FIG. 1A, gray highlight), lentiviral-mediated delivery of shRNAs was used to knock-down Shank3 in rat primary cortical neuron cultures. Cultured rat primary cortical neurons were transduced with lentiviruses encoding control shRNA or Shank3-shRNA at six days in vitro (DIV 6) and treated with BDNF (50 ng/ml) for 15 or 30 min at 14-16 days in vitro (DIV 14-16). Cell lysates were prepared in RIPA buffer prior to resolution by SDS-PAGE and Western blotting.
Cortical neurons, transduced with shRNA-expressing lentiviruses on DIV 6, were treated with 50 ng/ml BDNF or okadaic acid (100 nM) on DIV 16 and cell lysates were resolved by SDS-PAGE, followed by Western blotting.

[2] = system: rpS6; test: Western blot of rpS6 phosphorylation in Shank3 knock down primary neurons; assay type: cell-based, rat
Source text: E18 primary rat cortical neurons were dissected, cultured and infected 6 days after plating (DIV6) with indicated lentiviruses at MOI 10, as previously described (Proenca et al., 2013). Lentiviruses were produced by calcium phosphate transfection of HEK293T cells with packaging plasmids (Life Technologies) and transfer plasmid in 10 cm dishes. Cells were transferred to fresh medium 6 hrs. post-transfection. Four days post-transfection, the cell medium was collected and pooled from several dishes, cleared of cellular debris by 0.45 μm filtration, and concentrated 100× by centrifugation at 19,000 g for 90 min in a Beckman Ultracentrifuge using a SW28/SW32 rotor. Pellets were suspended in PBS/0.5% BSA and viral titer was determined by ELISA quantification of viral p24 antigen (Zeptometrix Corp, USA). For shRNA plasmid generation, oligonucleotides were annealed and ligated into lentiviral transfer plasmid pLKO.1-GFP vector at the AgeI/EcoRI sites. The target sequences of shRNAs that target rat and mouse Shank3 (5′-3′) are: […] (SEQ ID NO: 1), […] (SEQ ID NO: 2), and […] (SEQ ID NO: 3). The latter was previously reported (Verpelli et al., 2011). A luciferase-targeting sequence was used as an shRNA control: […] (SEQ ID NO: 4). […]

[3] = Shank3 knock down primary neurons, SC79 treatment

Compound	phosphorylation of Akt T308 ([1]; Shank3 knock down neurons)	phosphorylation of Akt T308 ([1]; control neurons)	rpS6 phosphorylation ([2]; Shank3 knock-down (shShank3) neurons, TG003 (FIG. 3F))	Akt phosphorylation [1, 3]	rpS6 phosphorylation [2, 3]
CCN1/C(=C/C(C)=O)Sc2ccc(OC)cc21 [TG003, (Z)-1-(3-ethyl-5-methoxy-2,3-dihydrobenzothiazol-2-ylidene)propan-2-one]	restored to control levels in Shank3 knock down neurons	refractory to TG003	restores Akt and rpS6 phosphorylation		
CCOC(=O)C1=C(N)Oc2ccc(Cl)cc2C1C(C#N)C(=O)OCC (centres unmarked) [SC79]				restored Akt and rpS6 phosphorylation	restored Akt and rpS6 phosphorylation
